According to PubChem BioAssay (NCI):
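Dose response: 5 concentrations. Exposure: 48 h. Format: 96-well plates. Endpoint: linear interpolation; highest concentration if not reached. TGI: total growth inhibition.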

How the values were obtained:
Assay in all cases: growth of human tumour cells (NCI), 48 h
786-0 renal = test system: 786-0 renal
A498 renal = test system: A498 renal
A549 NSCLC = test system: A549 NSCLC
ACHN renal = test system: ACHN renal
BT-549 breast = test system: BT-549 breast
CAKI-1 renal = test system: CAKI-1 renal
CCRF-CEM leukemia = test system: CCRF-CEM leukemia
COLO 205 colon = test system: COLO 205 colon
DU-145 prostate = test system: DU-145 prostate
EKVX NSCLC = test system: EKVX NSCLC
HCC-2998 colon = test system: HCC-2998 colon
HCT-116 colon = test system: HCT-116 colon
HCT-15 colon = test system: HCT-15 colon
HL-60(TB) leukemia = test system: HL-60(TB) leukemia
HOP-62 NSCLC = test system: HOP-62 NSCLC
HOP-92 NSCLC = test system: HOP-92 NSCLC
HS 578T breast = test system: HS 578T breast
HT29 colon = test system: HT29 colon
IGROV1 ovarian = test system: IGROV1 ovarian
K-562 leukemia = test system: K-562 leukemia
KM12 colon = test system: KM12 colon
LOX IMVI melanoma = test system: LOX IMVI melanoma
M14 melanoma = test system: M14 melanoma
MALME-3M melanoma = test system: MALME-3M melanoma
MCF7 breast = test system: MCF7 breast
MDA-MB-231 breast = test system: MDA-MB-231 breast
MDA-MB-435 = test system: MDA-MB-435
MDA-N = test system: MDA-N
MOLT-4 leukemia = test system: MOLT-4 leukemia
NCI-H226 lung = test system: NCI-H226 lung
NCI-H23 lung = test system: NCI-H23 lung
NCI-H460 lung = test system: NCI-H460 lung
NCI-H522 lung = test system: NCI-H522 lung
NCI/ADR-RES ovarian = test system: NCI/ADR-RES ovarian
OVCAR-3 ovarian = test system: OVCAR-3 ovarian
OVCAR-4 ovarian = test system: OVCAR-4 ovarian
OVCAR-5 ovarian = test system: OVCAR-5 ovarian
OVCAR-8 ovarian = test system: OVCAR-8 ovarian
PC-3 prostate = test system: PC-3 prostate
RPMI-8226 leukemia = test system: RPMI-8226 leukemia
RXF 393 renal = test system: RXF 393 renal
SF-268 CNS = test system: SF-268 CNS
SF-295 CNS = test system: SF-295 CNS
SF-539 CNS = test system: SF-539 CNS
SK-MEL-2 melanoma = test system: SK-MEL-2 melanoma
SK-MEL-28 melanoma = test system: SK-MEL-28 melanoma
SK-MEL-5 melanoma = test system: SK-MEL-5 melanoma
SK-OV-3 ovarian = test system: SK-OV-3 ovarian
SN12C renal = test system: SN12C renal
SNB-19 CNS = test system: SNB-19 CNS
SNB-75 CNS = test system: SNB-75 CNS
SW-620 colon = test system: SW-620 colon
T-47D breast = test system: T-47D breast
TK-10 renal = test system: TK-10 renal
U251 CNS = test system: U251 CNS
UACC-257 melanoma = test system: UACC-257 melanoma
UACC-62 melanoma = test system: UACC-62 melanoma
UO-31 renal = test system: UO-31 renal

## C/C(CC(O)(C(F)(F)F)C(F)(F)F)=N\N
786-0 renal
  TGI: > 10 µM
A498 renal
  TGI: > 10 µM
A549 NSCLC
  TGI: > 10 µM
ACHN renal
  TGI: > 10 µM
BT-549 breast
  TGI: > 10 µM
CAKI-1 renal
  TGI: > 10 µM
CCRF-CEM leukemia
  TGI: > 10 µM
COLO 205 colon
  TGI: > 10 µM
DU-145 prostate
  TGI: > 10 µM
EKVX NSCLC
  TGI: > 10 µM
HCC-2998 colon
  TGI: > 10 µM
HCT-116 colon
  TGI: > 10 µM
HCT-15 colon
  TGI: > 10 µM
HL-60(TB) leukemia
  TGI: > 10 µM
HOP-62 NSCLC
  TGI: > 10 µM
HOP-92 NSCLC
  TGI: > 10 µM
HS 578T breast
  TGI: > 10 µM
HT29 colon
  TGI: > 10 µM
IGROV1 ovarian
  TGI: > 10 µM
K-562 leukemia
  TGI: > 10 µM
KM12 colon
  TGI: > 10 µM
LOX IMVI melanoma
  TGI: > 10 µM
M14 melanoma
  TGI: > 10 µM
MALME-3M melanoma
  TGI: > 10 µM
MCF7 breast
  TGI: > 10 µM
MDA-MB-231 breast
  TGI: > 10 µM
MDA-MB-435
  TGI: > 10 µM
MDA-N
  TGI: > 10 µM
MOLT-4 leukemia
  TGI: > 10 µM
NCI-H226 lung
  TGI: > 10 µM
NCI-H23 lung
  TGI: > 10 µM
NCI-H460 lung
  TGI: > 10 µM
NCI-H522 lung
  TGI: > 10 µM
NCI/ADR-RES ovarian
  TGI: > 10 µM
OVCAR-3 ovarian
  TGI: > 10 µM
OVCAR-4 ovarian
  TGI: > 10 µM
OVCAR-5 ovarian
  TGI: > 10 µM
OVCAR-8 ovarian
  TGI: > 10 µM
PC-3 prostate
  TGI: > 10 µM
RPMI-8226 leukemia
  TGI: > 10 µM
RXF 393 renal
  TGI: > 10 µM
SF-268 CNS
  TGI: > 10 µM
SF-295 CNS
  TGI: > 10 µM
SF-539 CNS
  TGI: > 10 µM
SK-MEL-2 melanoma
  TGI: > 10 µM
SK-MEL-28 melanoma
  TGI: > 10 µM
SK-MEL-5 melanoma
  TGI: > 10 µM
SK-OV-3 ovarian
  TGI: > 10 µM
SN12C renal
  TGI: > 10 µM
SNB-19 CNS
  TGI: > 10 µM
SNB-75 CNS
  TGI: > 10 µM
SW-620 colon
  TGI: > 10 µM
T-47D breast
  TGI: > 10 µM
TK-10 renal
  TGI: > 10 µM
U251 CNS
  TGI: > 10 µM
UACC-257 melanoma
  TGI: > 10 µM
UACC-62 melanoma
  TGI: > 10 µM

## COc1cc(N=C(N)N=C(N)N)c2ncccc2c1
786-0 renal
  TGI: > 100 µM
A498 renal
  TGI: > 100 µM
A549 NSCLC
  TGI: > 100 µM
ACHN renal
  TGI: > 100 µM
BT-549 breast
  TGI: > 100 µM
CAKI-1 renal
  TGI: > 100 µM
COLO 205 colon
  TGI: > 100 µM
DU-145 prostate
  TGI: > 100 µM
EKVX NSCLC
  TGI: > 100 µM
HCC-2998 colon
  TGI: > 100 µM
HCT-116 colon
  TGI: > 100 µM
HCT-15 colon
  TGI: > 100 µM
HOP-62 NSCLC
  TGI: > 100 µM
HOP-92 NSCLC
  TGI: > 100 µM
HS 578T breast
  TGI: > 100 µM
HT29 colon
  TGI: > 100 µM
IGROV1 ovarian
  TGI: > 100 µM
KM12 colon
  TGI: > 100 µM
LOX IMVI melanoma
  TGI: > 100 µM
M14 melanoma
  TGI: > 100 µM
MALME-3M melanoma
  TGI: > 100 µM
MCF7 breast
  TGI: > 100 µM
MDA-MB-231 breast
  TGI: > 100 µM
MDA-MB-435
  TGI: > 100 µM
MDA-N
  TGI: > 100 µM
NCI-H226 lung
  TGI: 62.7 µM
NCI-H23 lung
  TGI: > 100 µM
NCI-H460 lung
  TGI: > 100 µM
NCI-H522 lung
  TGI: > 100 µM
NCI/ADR-RES ovarian
  TGI: > 100 µM
OVCAR-3 ovarian
  TGI: > 100 µM
OVCAR-4 ovarian
  TGI: > 100 µM
OVCAR-5 ovarian
  TGI: > 100 µM
OVCAR-8 ovarian
  TGI: > 100 µM
PC-3 prostate
  TGI: > 100 µM
RXF 393 renal
  TGI: > 100 µM
SF-268 CNS
  TGI: > 100 µM
SF-295 CNS
  TGI: > 100 µM
SF-539 CNS
  TGI: > 100 µM
SK-MEL-2 melanoma
  TGI: > 100 µM
SK-MEL-28 melanoma
  TGI: > 100 µM
SK-MEL-5 melanoma
  TGI: > 100 µM
SK-OV-3 ovarian
  TGI: > 100 µM
SN12C renal
  TGI: > 100 µM
SNB-19 CNS
  TGI: > 100 µM
SNB-75 CNS
  TGI: > 100 µM
SW-620 colon
  TGI: > 100 µM
T-47D breast
  TGI: > 100 µM
TK-10 renal
  TGI: > 100 µM
U251 CNS
  TGI: > 100 µM
UACC-257 melanoma
  TGI: > 100 µM
UACC-62 melanoma
  TGI: > 100 µM
UO-31 renal
  TGI: > 100 µM
